Assay [1] addresses Cholinesterase (Homo sapiens, UniProt P06276).
Description: Inhibition of human recombinant butyrylcholinesterase
The target in assay [2] is Acetylcholinesterase (Homo sapiens, UniProt P22303).
Description: Inhibition of human recombinant acetylcholinesterase
The target of assay [3] is NAD(P)H dehydrogenase [quinone] 1 (Homo sapiens) (UniProt P15559). As to the kind of experiment: Activity of NQO1 enzyme.
Assay [4] relates to SH-SY5Y. The assay is described as follows: Antioxidant activity in human SHSY5Y cells overexpressing NQO1 assessed as increase in tert-butyl hydroperoxide evoked-intracellular ROS formation at 3 uM after 24 hrs relative to control. The format is functional.
Assay [5] relates to SH-SY5Y. As to the kind of experiment: Antioxidant activity in human SHSY5Y cells overexpressing NQO1 assessed as increase in tert-butyl hydroperoxide evoked-intracellular ROS formation at 1 uM after 24 hrs relative to control. The format is functional.
For assay [6], the system named is SH-SY5Y. The assay is described as follows: Antioxidant activity in human SHSY5Y cells overexpressing NQO1 assessed as increase in tert-butyl hydroperoxide evoked-intracellular ROS formation at 0.1 uM after 24 hrs relative to control. The format is functional.
The test system of assay [7] is SH-SY5Y. The assay is described as follows: Antioxidant activity in human SHSY5Y cells overexpressing NQO1 assessed as increase in tert-butyl hydroperoxide evoked-intracellular ROS formation at 0.3 uM after 24 hrs relative to control. The format is functional.

Calls of active or inactive are those of the source. The calls are words filed in the database; no cut-off is given here.

Chain of Acetylcholinesterase (P22303 whole entry): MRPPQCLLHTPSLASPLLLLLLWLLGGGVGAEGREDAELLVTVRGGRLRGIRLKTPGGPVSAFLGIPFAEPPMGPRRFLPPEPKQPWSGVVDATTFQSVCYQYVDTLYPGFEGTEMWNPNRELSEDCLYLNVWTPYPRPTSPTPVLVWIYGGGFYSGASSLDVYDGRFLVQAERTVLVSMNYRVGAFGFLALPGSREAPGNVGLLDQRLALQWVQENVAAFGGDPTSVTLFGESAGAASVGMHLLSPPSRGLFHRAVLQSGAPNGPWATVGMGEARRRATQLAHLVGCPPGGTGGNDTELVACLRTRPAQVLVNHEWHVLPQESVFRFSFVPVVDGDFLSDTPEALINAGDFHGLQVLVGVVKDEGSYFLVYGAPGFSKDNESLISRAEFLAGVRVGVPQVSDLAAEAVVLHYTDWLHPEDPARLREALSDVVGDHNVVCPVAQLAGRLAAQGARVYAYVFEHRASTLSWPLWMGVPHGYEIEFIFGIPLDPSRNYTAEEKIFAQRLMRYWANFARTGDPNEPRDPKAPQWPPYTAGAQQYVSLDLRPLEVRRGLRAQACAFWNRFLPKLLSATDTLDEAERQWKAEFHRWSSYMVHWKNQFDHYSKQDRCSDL
Chain of Cholinesterase (P06276 whole entry): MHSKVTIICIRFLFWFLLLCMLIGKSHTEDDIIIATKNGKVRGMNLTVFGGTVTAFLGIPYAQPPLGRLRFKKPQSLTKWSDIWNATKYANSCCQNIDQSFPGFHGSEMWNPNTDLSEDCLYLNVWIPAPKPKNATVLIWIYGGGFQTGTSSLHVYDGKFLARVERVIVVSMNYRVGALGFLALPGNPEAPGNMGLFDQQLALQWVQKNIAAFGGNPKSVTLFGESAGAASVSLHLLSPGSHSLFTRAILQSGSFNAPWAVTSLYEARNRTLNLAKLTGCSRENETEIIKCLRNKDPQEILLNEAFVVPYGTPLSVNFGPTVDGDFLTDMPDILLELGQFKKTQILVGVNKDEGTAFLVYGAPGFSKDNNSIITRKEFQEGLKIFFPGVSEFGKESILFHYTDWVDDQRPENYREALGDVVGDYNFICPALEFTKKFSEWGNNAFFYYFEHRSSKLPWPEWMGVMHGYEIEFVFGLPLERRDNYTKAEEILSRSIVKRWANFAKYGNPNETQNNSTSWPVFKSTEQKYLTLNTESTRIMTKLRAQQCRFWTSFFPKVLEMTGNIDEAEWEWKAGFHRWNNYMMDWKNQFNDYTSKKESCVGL
Chain of NAD(P)H dehydrogenase [quinone] 1 (Homo sapiens) (P15559 whole entry): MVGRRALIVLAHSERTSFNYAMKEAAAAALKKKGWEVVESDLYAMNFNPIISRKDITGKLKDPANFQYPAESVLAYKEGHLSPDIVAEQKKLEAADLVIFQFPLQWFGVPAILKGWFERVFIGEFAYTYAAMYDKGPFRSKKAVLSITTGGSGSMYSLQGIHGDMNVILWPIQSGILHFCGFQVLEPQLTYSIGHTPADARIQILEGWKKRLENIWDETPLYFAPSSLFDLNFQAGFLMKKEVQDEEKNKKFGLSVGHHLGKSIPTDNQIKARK

In general, IC50 refers to the concentration that gives 50% inhibition. Lower therefore signals higher potency. Turning to `CCN(CCCCCCNC1=CC(=O)C(NCCCCCCN(CC)Cc2ccncc2)=CC1=O)Cc1ccncc1`, the IC50 was 70100 nM in assay [1] and 192 nM in assay [2].
Take `CCN(CCCCCCNC1=CC(=O)C(NCCCCCCN(CC)CCc2ccccc2OC)=CC1=O)CCc1ccccc1OC`: the IC50 was 518 nM in assay [1] and 17.3 nM in assay [2].
As for `CCN(CCCCCCNC1=C(c2ccccc2)C(=O)C(NCCCCCCN(CC)Cc2ccccc2OC)=C(c2ccccc2)C1=O)Cc1ccccc1OC`, the figures for the IC50 in assay [1] and in assay [2] were 2250 nM and 123 nM, respectively.
The like results for `CCN(CCCCNC1=CC(=O)C(NCCCCN(CC)Cc2ccccc2OC)=CC1=O)Cc1ccccc1OC` were, in that order, 12800 nM and 13.6 nM.
In the case of `CCN(CCCCCCNc1ccc(NCCCCCCN(CC)Cc2ccccc2OC)cc1)Cc1ccccc1OC`, in assay [3], the result was inactive. Moreover, the IC50 was 505 nM in assay [1] and 42.5 nM in assay [2]. The Activity in assay [4] worked out at 49.54%; in assay [5], 51.35%; in assay [6], 54.2%; in assay [7], 50.45%.
On to `CCN(CCCCCCNC1=CC(=O)C(NCCCCCCN(CC)Cc2ccccn2)=CC1=O)Cc1ccccn1`, for which the IC50 is 2470 nM in assay [1] and 125 nM in assay [2].
Take `CCN(CCCCCNC1=CC(=O)C(NCCCCCN(CC)Cc2ccccc2OC)=CC1=O)Cc1ccccc1OC`: the IC50 is 3460 nM in assay [1] and 2.36 nM in assay [2].
On to `CCN(CCCCCCNC1=C(Cl)C(=O)C(NCCCCCCN(CC)Cc2ccccc2OC)=C(Cl)C1=O)Cc1ccccc1OC`, for which the results for the IC50 in assay [1] and in assay [2] were 800 nM and 3.05 nM, respectively.
On to `CCN(CCCCCCNC1=CC(=O)C(NCCCCCCN(CC)Cc2cccs2)=CC1=O)Cc1cccs1`, for which the IC50 in assay [1] came out at 2790 nM; in assay [2], 60.4 nM.
In assay [1], `CCN(CCCCCCNC1=CC(=O)C(NCCCCCCN(CC)Cc2cccc(OC)c2)=CC1=O)Cc1cccc(OC)c1` returned an IC50 of 1690 nM.
`CCN(CCCNC1=CC(=O)C(NCCCN(CC)Cc2ccccc2OC)=CC1=O)Cc1ccccc1OC` gave an IC50 in assay [1] of 9840 nM.
As to `CCN(CCCCCCNC1=CC(=O)C(NCCCCCCN(CC)Cc2cccnc2)=CC1=O)Cc1cccnc1`, the IC50 in assay [1] amounted to 11900 nM; in assay [2] it was 133 nM.
Take `CCN(CCCCCCNC1=CC(=O)C(NCCCCCCN(CC)Cc2ccccc2OC)=CC1=O)Cc1ccccc1OC` [MEMOQUIN]: the Activity in assay [4] is recorded as 30.5%; in assay [5], 40.25%; in assay [6], 53%; in assay [7], 49.94%.
As to `COc1ccccc1CN(CCCCCCNC1=CC(=O)C(NCCCCCCN(Cc2ccccc2OC)C(C)C)=CC1=O)C(C)C`, the IC50 came to 660 nM in assay [1] and 12.9 nM in assay [2].
For `CCN(CCCCCCNC1=C(Br)C(=O)C(NCCCCCCN(CC)Cc2ccccc2OC)=C(Br)C1=O)Cc1ccccc1OC`, the IC50 in assay [1] was 696 nM. Moreover, the Activity turned out to be 42.12% in assay [4], 50.43% in assay [5], 50.51% in assay [6] and 52.35% in assay [7].
In assay [1], `CCN(CCCCCCNC1=CC(=O)C(NCCCCCCN(CC)Cc2ccccc2[N+](=O)[O-])=CC1=O)Cc1ccccc1[N+](=O)[O-]` registered an IC50 of 67100 nM.
Take `CCN(Cc1ccccc1OC)C(=O)CCCCCNC1=CC(=O)C(NCCCCCC(=O)N(CC)Cc2ccccc2OC)=CC1=O`: the half-maximal inhibitory concentration (IC50) in assay [1] is 18500 nM; in assay [2], 11600 nM.
On the same counts, the results for `CCN(CCCCCCNC1=CC(=O)C(NCCCCCCN(CC)Cc2ccccc2C)=CC1=O)Cc1ccccc1C` are 2080 nM and 71.9 nM.
In the case of `CCN(CCCCCCNC1=CC(=O)C(NCCCCCCN(CC)Cc2ccco2)=CC1=O)Cc1ccco1`, the concentration for half-maximal inhibition (IC50) in assay [1] is 3410 nM.
Still for that read-out and setting: under `CCN(CCCCCCNC1=CC(=O)C(NCCCCCCN(CC)Cc2ccc(OC)cc2)=CC1=O)Cc1ccc(OC)cc1` stands 2390 nM.

(Values after ChEMBL document CHEMBL1148814, “Novel class of quinone-bearing polyamines as multi-target-directed ligands to combat Alzheimer's disease” (J Med Chem, 2007).)
